Results: article PMC10945559, “Forgotten Natural Products: Semisynthetic Development of Blasticidin S As an Antibiotic Lead” (ACS Medicinal Chemistry Letters, 2024)
≈ marks a conversion by molar mass, not a printed value. Like-named read-outs stand apart in the source and are kept apart here.

Tests used:
in vitro = format: cell-based, human; details: human; MRC-5 (lung fibroblast); 24 h; one biological replicate (n = 3); read-out: CC50 for human cells
Protocol: (§1) as a range from biological replicates. Inhibition curves were generated using Prism (GraphPad).
(§2) The IC50 values reported in Table 2 are the average of the two biological replicates ± standard […]
(§3) Cytotoxicity Assay Procedure
(§4) Human lung fibroblast cells, MRC -5 (CCL-171), were cultured at 37℃ with 5% CO2 and were plated at 5000 cells/well in a 96 -well plate. Compounds 1, 2, and 15-22 were initially prepared at concentrations of 5.12 mg/mL in a vehicle of 50% DMSO. Dilutions of the compounds (4 – 512 μg/mL) were then prepared in growth medium containing Dulbecco’s modified Eagle’s medium (DMEM) with high glucose, L -glutamine, and sodium pyruvate supplemented with 10% fetal bovine serum (FBS), 1% non -essential amino acids, and 0.1% gentamicin sulfate, and 25mM HEPES. The vehicle (50% DMSO) was also prepared via the sa me dilution series to serve as a control. Growth media was removed from the cells and replaced with the same volume of each compound dilution. Cells were incubated for 24 h , after which CellTiter 96® AQueous One Solution Reagent was added to each well as recommended by the manufacturer’s protocol (Promega CellTiter 96 AQueous One Solution Cell Proliferation Assay) and further incubated for 4 h. After incubation, absorbance was measured at 490 nm on an Infinite M plex multimode microplate reader with i -control Tecan software. Viability was calculated by subtracting media only absorbance values and normalizing to the vehicle control at each concentration. The presented data is one assay performed in triplicate that is representative of multiple trials. Data for the 256 and 512 μg/mL concentrations were removed from analysis due to vehicle toxicity […]
(§5) CC50 concentrations were determined via the ED50 Plus v1.0 software (https://archive.org/details/ed50v10_zip).
(§6) Figure S41. The effect of compounds on cell viability. The lines represent non -linear regression curves, and error bars represent means ± […]
(§7) SD (n=3). […]

[1] = test system: MRC-5 lung fibroblast cells; assay: in vitro; format: cell-based, human; details: average of SI (CC50/IC50) over the bacteria tested
Protocol: as §1, §2, §3, §4, §5, §6, §7

S. aureus 8810 = assay: Broth microdilution antibacterial assay; format: cell-based, Staphylococcus aureus; details: for Selectivity index (CC50/IC50): MRC-5 CC50 / S. aureus IC50; for IC50 / MIC: Staphylococcus aureus, 8810; for IC50: average of two biological replicates ± S.D., read-out: IC50
Protocol: (§8) Antibacterial Assay Procedure
(§9) Broth Microdilution Assays
(§10) Media and solutions were autoclaved or sterile filtered prior to use and manipulations were carried out in a laminar flow hood. Antibacterial testing was performed in polypropylene 96 -well flat bottom plates. The minimal inhibitory concentration of blasticidin S ( 1) hydrochloride, P10 (2), and derivatives 15–22 were assessed against Staphylococcus aureus ΔNorA, S. aureus 8810, methicillin-resistant S. aureus (MRSA) ATCC 43300, Enterococcus faecalis ATCC 29212, vancomycin-resistant Enterococcus, Klebsiella pneumoniae ATCC 29665, Pseudomonas aeruginosa, and Acinetobacter baumannii ATCC 17978 using serial dilutions. Doxycycline (Gold Bio) as a positive control and the vehicle as a negative control. Stock solutions of each compound were prepared at 5.12 mg/mL in 50% DMSO/water and serially diluted in 50% DMSO/water to create master plates. From the master plates, 10 μL of each dilution was applied to test plates using a Bravo automated liquid transfer system (Agilent). Bacteria previously grown overnight (37 °C, 120 – 200 RPM), in LB broth were diluted to an OD600 of 0.0 5 in cation-adjusted Mueller-Hinton broth, grown to an OD600 of ~0.5, and diluted to an OD600 of 0.004 in cation-adjusted Mueller-Hinton broth. These diluted cultures were applied to the test plates (190 μL per test well) resulting in final concentrations of the test compounds of 256–2 μg/mL. Growth controls (wells with inoculated media but no vehicle or test compounds) were included to assess any potential toxicity from the vehicle. The plates were incubated at 37 °C for 16–18 h, except for VRE and E. faecalis, which were incubated at 37 °C for 24 h. Inhibition was determined by measuring the optical density at 600 nm (OD600) with a Cytation 3 plate reader (BioTek). The optical density measurements were normalized to the positive and negative controls and the vehicle and growth controls were compared and found to be indistinguishable, indicating no toxicity from the vehicle used. The MIC was the lowest concentration that inhibited >90% of growth. Two biological replicates were performed in duplicate. MIC values are reported […]
as §1, §2, §3, §4, §5

[2] = test system: methicillin-resistant S. aureus (MRSA) ATCC 43300; assay: Broth microdilution antibacterial assay; format: cell-based, Staphylococcus aureus; details: for Selectivity index (CC50/IC50): MRC-5 CC50 / MRSA IC50; for IC50 / MIC: Staphylococcus aureus; for IC50: average of two biological replicates ± S.D., read-out: IC50
Protocol: as §8, §9, §10, §1, §2, §3, §4, §5

[3] = test system: Enterococcus faecalis ATCC 29212; assay: Broth microdilution antibacterial assay; format: cell-based; details: for MIC / IC50: Enterococcus faecalis, ATCC29212; for IC50: average of two biological replicates ± S.D. (18: one biological replicate), read-out: IC50; for Selectivity index (CC50/IC50): MRC-5 CC50 / E. faecalis IC50
Protocol: as §8, §9, §10, §1, §2, §3, §4, §5

Pseudomonas aeruginosa = assay: Broth microdilution antibacterial assay; format: cell-based; details: for Selectivity index (CC50/IC50): MRC-5 CC50 / P. aeruginosa IC50; for IC50 / MIC: Pseudomonas aeruginosa, P. aeruginosa; for IC50: average of two biological replicates ± S.D., read-out: IC50; for MIC: lowest concentration inhibiting >90% of growth, range from biological replicates, read-out: MIC
Protocol: as §8, §9, §10, §1, §2, §3, §4, §5

[4] = test system: vancomycin-resistant Enterococcus (VRE); assay: Broth microdilution antibacterial assay; format: cell-based; details: for MIC / IC50: Enterococcus, VRE; for IC50: average of two biological replicates ± S.D., read-out: IC50; for Selectivity index (CC50/IC50): MRC-5 CC50 / VRE IC50
Protocol: as §8, §9, §10, §1, §2, §3, §4, §5

[5] = test system: Acinetobacter baumannii ATCC 17978; assay: Broth microdilution antibacterial assay; format: cell-based; details: for IC50 / MIC: Acinetobacter baumannii, ATCC17978, A. baumannii; for IC50: average of two biological replicates ± S.D., read-out: IC50; for MIC: lowest concentration inhibiting >90% of growth, range from biological replicates, read-out: MIC; for Selectivity index (CC50/IC50): MRC-5 CC50 / A. baumannii IC50
Protocol: as §8, §9, §10, §1, §2, §3, §4, §5

[6] = test system: Klebsiella pneumoniae ATCC 29665; assay: Broth microdilution antibacterial assay; format: cell-based; details: for IC50 / MIC: Klebsiella pneumoniae, ATCC29665, K. pneumoniae; for IC50: average of two biological replicates ± S.D., read-out: IC50; for MIC: lowest concentration inhibiting >90% of growth, range from biological replicates, read-out: MIC; for Selectivity index (CC50/IC50): MRC-5 CC50 / K. pneumoniae IC50
Protocol: as §8, §9, §10, §1, §2, §3, §4, §5

[7] = test system: Staphylococcus aureus ΔNorA; assay: Broth microdilution antibacterial assay; format: cell-based; details: for Selectivity index (CC50/IC50): MRC-5 CC50 / S. aureus ΔNorA IC50; for IC50 / MIC: Staphylococcus aureus
Protocol: as §8, §9, §10, §1, §2, §3, §4, §5

[8] = S. aureus, lowest concentration inhibiting >90% of growth, range from biological replicates, read-out: MIC
[9] = average MIC, Table S3, read-out: Average Activity against S. aureus
[10] = MRSA, lowest concentration inhibiting >90% of growth, range from biological replicates, read-out: MIC
[11] = average MIC, Table S3, read-out: Average Activity against MRSA
[12] = E. faecalis, 24 h, lowest concentration inhibiting >90% of growth, range from biological replicates, read-out: MIC
[13] = average MIC, Table S3, read-out: Average Activity against E. faecalis
[14] = average MIC, Table S3, read-out: Average Activity against VRE
[15] = 24 h, lowest concentration inhibiting >90% of growth, range from biological replicates, read-out: MIC

| Compound | CC50 at 24 h (in vitro) | Selectivity index (CC50/IC50) (S. aureus 8810) | IC50 (S. aureus 8810; S. aureus) | MIC (S. aureus 8810; [8]) | MIC (S. aureus 8810; [9]) | Selectivity index (CC50/IC50) [2] | IC50 ([2]; MRSA) | MIC [2, 10] | MIC [2, 11] | MIC [3, 12] | IC50 ([3]; E. faecalis) | MIC [3, 13] | Selectivity index (CC50/IC50) [3] | Selectivity index (CC50/IC50) (Pseudomonas aeruginosa) | IC50 (Pseudomonas aeruginosa) | MIC (Pseudomonas aeruginosa) | MIC [4, 14] | MIC [4, 15] | IC50 [4] | Selectivity index (CC50/IC50) [4] | further results |
| --- | --- | --- | --- | --- | --- | --- | --- | --- | --- | --- | --- | --- | --- | --- | --- | --- | --- | --- | --- | --- | --- |
| CN(CC[C@H](N)CC(=O)N[C@H]1C=C[C@H](n2ccc(N)nc2=O)O[C@@H]1C(N)=O)C(=N)N [Compound 2, P10] | 5.9 µg/mL (≈ 14 µM) | 1.3 | 4.7 ± 1 µg/mL (≈ 11.2 µM) | 32 µg/mL (≈ 75.9 µM) | 32 µg/mL (≈ 75.9 µM) | 0.8 | 7 ± 1 µg/mL (≈ 16.6 µM) | 32 µg/mL (≈ 75.9 µM) | 32 µg/mL (≈ 75.9 µM) | 16 to 32 µg/mL (≈ 38 to 75.9 µM) | 5.1 ± 4.3 µg/mL (≈ 12.1 µM) | 16 µg/mL (≈ 38 µM) | 1.2 | 0.4 | 14.6 ± 1.5 µg/mL (≈ 34.6 µM) | 64 µg/mL (≈ 152 µM) | 64 µg/mL (≈ 152 µM) | 64 µg/mL (≈ 152 µM) | 15 ± 8.6 µg/mL (≈ 35.6 µM) | 0.4 | average selectivity index [1]: 0.8; IC50 [5]: 4.5 ± 0.4 µg/mL (≈ 10.7 µM); MIC [5]: 16 µg/mL (≈ 38 µM); Selectivity index (CC50/IC50) [5]: 1.3; IC50 [6]: 7.6 ± 1.3 µg/mL (≈ 18 µM); MIC [6]: 32 µg/mL (≈ 75.9 µM); Selectivity index (CC50/IC50) [6]: 0.8; Selectivity index (CC50/IC50) [7]: 0.4; IC50 [7]: 14 ± 0.3 µg/mL (≈ 33.2 µM); MIC [7]: 64 to 128 µg/mL (≈ 152 to 304 µM) |
| C#CCCNC(=O)[C@H]1O[C@@H](n2ccc(N)nc2=O)C=C[C@@H]1NC(=O)C[C@@H](N)CCN(C)C(=N)N [Compound 20] | 65.9 µg/mL (≈ 139 µM) | 26 | 2.5 ± 0.2 µg/mL (≈ 5.28 µM) | 16 µg/mL (≈ 33.8 µM) | 16 µg/mL (≈ 33.8 µM) | 9.1 | 7.2 ± 2.3 µg/mL (≈ 15.2 µM) | 32 µg/mL (≈ 67.6 µM) | 32 µg/mL (≈ 67.6 µM) | 16 to 32 µg/mL (≈ 33.8 to 67.6 µM) | 11.1 ± 4.1 µg/mL (≈ 23.4 µM) | 16 µg/mL (≈ 33.8 µM) | 5.9 | 3.3 | 20.2 ± 1.3 µg/mL (≈ 42.7 µM) | 64 µg/mL (≈ 135 µM) | 64 µg/mL (≈ 135 µM) | 64 µg/mL (≈ 135 µM) | 22.1 ± 12 µg/mL (≈ 46.7 µM) | 3.0 | IC50 [5]: 24.3 ± 3.2 µg/mL (≈ 51.3 µM); MIC [5]: 128 µg/mL (≈ 270 µM); Selectivity index (CC50/IC50) [5]: 2.7; IC50 [6]: 30.7 ± 5.3 µg/mL (≈ 64.8 µM); MIC [6]: 128 µg/mL (≈ 270 µM); Selectivity index (CC50/IC50) [6]: 2.2; Selectivity index (CC50/IC50) [7]: 4.3; IC50 [7]: 15.2 ± 2.1 µg/mL (≈ 32.1 µM); MIC [7]: 64 µg/mL (≈ 135 µM) |
